Results as given in PubChem BioAssay AID248 (DTP/NCI, 2004).
“And” between values parts separate entries of the source, which are not always exact repeats. Equal entries are not always repeated. Toxic doses and inconclusive results are not listed. Rule as the data show it: active = T/C of 150% or more; inactive = T/C below 125%.

System: L1210 leukemia ip in BDF1 mice, survival T/C
Test: NCI In Vivo Anticancer Drug Screen. Data for tumor model L1210 Leukemia (intraperitoneal) in B6D2F1 (BDF1) mice
Settings: endpoint: mean survival time, higher = longer survival
In short: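 Mice bearing the transplanted tumor received compound or vehicle. Survival of the treated group was divided by that of the vehicle-treated control group to give the ratio.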

[1] = dose: 100.0 mg/kg/injection, schedule: Q01DX009 (ip), vehicle: saline with Tween-80
[2] = dose: 100.0 mg/kg/injection, schedule: Q04DX003 (ip), vehicle: Klucel (hydroxypropylcellulose) (HPC)
[3] = dose: 200.0 mg/kg/injection, schedule: Q04DX003 (ip), vehicle: Klucel (hydroxypropylcellulose) (HPC)
[4] = dose: 100.0 mg/kg/injection, schedule: Q04DX003 (ip), vehicle: saline with Tween-80
[5] = dose: 200.0 mg/kg/injection, schedule: Q04DX003 (ip), vehicle: saline with Tween-80
[6] = dose: 400.0 mg/kg/injection, schedule: Q04DX003 (ip), vehicle: saline with Tween-80
[7] = dose: 100.0 mg/kg/injection, schedule: Q01DX009 (ip), vehicle: Klucel (hydroxypropylcellulose) (HPC)
[8] = dose: 200.0 mg/kg/injection, schedule: Q01DX009 (ip), vehicle: Klucel (hydroxypropylcellulose) (HPC)
[9] = dose: 25.0 mg/kg/injection, schedule: Q01DX009 (ip), vehicle: saline
[10] = dose: 50.0 mg/kg/injection, schedule: Q01DX009 (ip), vehicle: saline
[11] = dose: 100.0 mg/kg/injection, schedule: Q01DX009 (ip), vehicle: saline
[12] = dose: 100.0 mg/kg/injection, schedule: Q04DX003 (ip), vehicle: saline
[13] = dose: 200.0 mg/kg/injection, schedule: Q04DX003 (ip), vehicle: saline
[14] = dose: 400.0 mg/kg/injection, schedule: Q04DX003 (ip), vehicle: saline

Measured: T/C

NS(=O)(=O)c1ccc(NC(=O)Nc2ccccc2F)cc1
inactive: dose: 100.0 mg/kg/injection, schedule: Q01DX001 (ip), vehicle: saline with Tween-80 102 % of control | [1] 98 % of control and 104 % of control | dose: 100.0 mg/kg/injection, schedule: Q04DX002 (ip), vehicle: saline with Tween-80 93 % of control and 97 % of control | dose: 200.0 mg/kg/injection, schedule: Q01DX001 (ip), vehicle: saline with Tween-80 101 % of control | dose: 200.0 mg/kg/injection, schedule: Q01DX009 (ip), vehicle: saline with Tween-80 93 % of control and 102 % of control | dose: 200.0 mg/kg/injection, schedule: Q04DX002 (ip), vehicle: saline with Tween-80 98 % of control and 105 % of control | dose: 400.0 mg/kg/injection, schedule: Q01DX001 (ip), vehicle: saline with Tween-80 90 % of control | dose: 400.0 mg/kg/injection, schedule: Q01DX009 (ip), vehicle: saline with Tween-80 98 % of control and 102 % of control | dose: 400.0 mg/kg/injection, schedule: Q04DX002 (ip), vehicle: saline with Tween-80 96 % of control and 97 % of control

O=C1c2ccccc2C(=O)N1Cc1cccc([N+](=O)[O-])c1
inactive: dose: 12.5 mg/kg/injection, schedule: Q01DX009 (ip), vehicle: Klucel (hydroxypropylcellulose) (HPC) 87 % of control | dose: 25.0 mg/kg/injection, schedule: Q01DX009 (ip), vehicle: Klucel (hydroxypropylcellulose) (HPC) 87 % of control | dose: 50.0 mg/kg/injection, schedule: Q01DX009 (ip), vehicle: Klucel (hydroxypropylcellulose) (HPC) 94 % of control | [2] 93 % of control | [3] 97 % of control | dose: 400.0 mg/kg/injection, schedule: Q04DX003 (ip), vehicle: Klucel (hydroxypropylcellulose) (HPC) 90 % of control

O=C(Nc1ccc(C(=O)O)c(O)c1)c1ccccc1
inactive: dose: 100.0 mg/kg/injection, schedule: Q01DX001 (ip), vehicle: acetone 96 % of control | dose: 100.0 mg/kg/injection, schedule: Q04DX003 (ip), vehicle: saline sonified 98 % of control | dose: 200.0 mg/kg/injection, schedule: Q01DX001 (ip), vehicle: acetone 97 % of control | dose: 200.0 mg/kg/injection, schedule: Q04DX003 (ip), vehicle: saline sonified 101 % of control | dose: 400.0 mg/kg/injection, schedule: Q01DX001 (ip), vehicle: acetone 97 % of control | dose: 400.0 mg/kg/injection, schedule: Q04DX003 (ip), vehicle: saline sonified 101 % of control

CSCCC(C#N)(CCN(C)C)c1ccccc1 (centres undefined)
inactive: dose: 25.0 mg/kg/injection, schedule: Q01DX009 (ip), vehicle: other 102 % of control | dose: 50.0 mg/kg/injection, schedule: Q01DX009 (ip), vehicle: other 98 % of control | dose: 100.0 mg/kg/injection, schedule: Q01DX009 (ip), vehicle: other 91 % of control | [1] 97 % of control | [2] 96 % of control | [3] 98 % of control

COC(=O)C1=CCC=CC1
inactive: [4] 102 % of control | [5] 96 % of control | [6] 93 % of control

Nc1nc(C=O)c(Cc2ccc(Br)cc2)c(=O)[nH]1
inactive: [1] 118 % of control | [4] 100 % of control | [5] 105 % of control | [6] 102 % of control

CCN(CC)C(=S)N1CCCCC1
inactive: [7] 99 % of control | dose: 100.0 mg/kg/injection, schedule: Q04DX002 (ip), vehicle: Klucel (hydroxypropylcellulose) (HPC) 100 % of control | [8] 105 % of control | dose: 200.0 mg/kg/injection, schedule: Q04DX002 (ip), vehicle: Klucel (hydroxypropylcellulose) (HPC) 90 % of control | dose: 400.0 mg/kg/injection, schedule: Q01DX009 (ip), vehicle: Klucel (hydroxypropylcellulose) (HPC) 108 % of control | dose: 400.0 mg/kg/injection, schedule: Q04DX002 (ip), vehicle: Klucel (hydroxypropylcellulose) (HPC) 110 % of control

Cc1cc(C)n(/N=C/c2ccccc2)c(=O)c1C#N
inactive: dose: 100.0 mg/kg/injection, schedule: Q01DX001 (ip), vehicle: carboxymethylcellulose (CMC) 91 % of control | dose: 200.0 mg/kg/injection, schedule: Q01DX001 (ip), vehicle: carboxymethylcellulose (CMC) 91 % of control | dose: 400.0 mg/kg/injection, schedule: Q01DX001 (ip), vehicle: carboxymethylcellulose (CMC) 91 % of control

Cc1n(CC(C)C)c2c([n+]1CC(=O)c1ccc([N+](=O)[O-])cc1)C(=O)c1ccccc1C2=O
inactive: dose: 5.0 mg/kg/injection, schedule: Q01DX001 (ip), vehicle: carboxymethylcellulose (CMC) 93 % of control | dose: 10.0 mg/kg/injection, schedule: Q01DX001 (ip), vehicle: carboxymethylcellulose (CMC) 86 % of control | dose: 20.0 mg/kg/injection, schedule: Q01DX001 (ip), vehicle: carboxymethylcellulose (CMC) 97 % of control

CC1(c2cccs2)C(=O)N(Cl)C(=O)N1Cl (centres undefined)
inactive: [9] 110 % of control | [10] 106 % of control | [11] 104 % of control | [12] 96 % of control

CC(COC(=O)c1ccc(N)cc1)NC1CCCCC1 (centres undefined)
inactive: dose: 75.0 mg/kg/injection, schedule: Q01DX001 (ip), vehicle: other 96 % of control | dose: 150.0 mg/kg/injection, schedule: Q01DX001 (ip), vehicle: other 102 % of control

COc1cc2c(c(OC)c1OC)-c1ccc(=O)c(OC)cc1[C@@H](NC(=O)CCl)CC2
inactive: dose: 100.0 mg/kg/injection, schedule: Q01DX001 (ip), vehicle: Klucel (hydroxypropylcellulose) (HPC) 94 % of control | [7] 103 % of control | dose: 200.0 mg/kg/injection, schedule: Q01DX001 (ip), vehicle: Klucel (hydroxypropylcellulose) (HPC) 98 % of control | [8] 103 % of control | dose: 400.0 mg/kg/injection, schedule: Q01DX001 (ip), vehicle: Klucel (hydroxypropylcellulose) (HPC) 105 % of control

Clc1ccccc1Br
inactive: dose: 100.0 mg/kg/injection, schedule: Q01DX007 (ip), vehicle: saline with Tween-80 104 % of control | [4] 95 % of control | dose: 200.0 mg/kg/injection, schedule: Q01DX007 (ip), vehicle: saline with Tween-80 98 % of control | [5] 96 % of control | dose: 400.0 mg/kg/injection, schedule: Q01DX007 (ip), vehicle: saline with Tween-80 96 % of control | [6] 98 % of control

CCc1ccc(/C=C\c2ccc(O)c(O)c2)[n+](C)c1
inactive: dose: 15.0 mg/kg/injection, schedule: Q01DX001 (ip), vehicle: saline 87 % of control | dose: 30.0 mg/kg/injection, schedule: Q01DX001 (ip), vehicle: saline 89 % of control

O=[N+]([O-])c1nc2ccccc2[nH]1
inactive: dose: 100.0 mg/kg/injection, schedule: Q01DX001 (ip), vehicle: other 98 % of control

NCCCn1c2ccccc2c2cnccc21
inactive: dose: 12.5 mg/kg/injection, schedule: Q01DX009 (ip), vehicle: saline 101 % of control | [9] 101 % of control | dose: 25.0 mg/kg/injection, schedule: Q04DX003 (ip), vehicle: water 87 % of control | [10] 107 % of control | dose: 50.0 mg/kg/injection, schedule: Q01DX009 (ip), vehicle: water 104 % of control | dose: 50.0 mg/kg/injection, schedule: Q04DX003 (ip), vehicle: water 92 % of control | dose: 100.0 mg/kg/injection, schedule: Q01DX009 (ip), vehicle: water 103 % of control | dose: 100.0 mg/kg/injection, schedule: Q04DX003 (ip), vehicle: water 104 % of control and 87 % of control

COc1ccc2c(c1OC)C(=O)OC2c1ccc(O)c(Br)c1 (centres undefined)
inactive: dose: 100.0 mg/kg/injection, schedule: Q01DX009 (ip), vehicle: alcohol 95 % of control | [12] 109 % of control | dose: 200.0 mg/kg/injection, schedule: Q01DX009 (ip), vehicle: alcohol 97 % of control | [13] 106 % of control | dose: 400.0 mg/kg/injection, schedule: Q01DX009 (ip), vehicle: alcohol 95 % of control | [14] 101 % of control

CCOC(OCC)OC(C)=O
inactive: [11] 107 % of control | [12] 110 % of control | dose: 200.0 mg/kg/injection, schedule: Q01DX009 (ip), vehicle: saline 98 % of control | [13] 97 % of control | dose: 400.0 mg/kg/injection, schedule: Q01DX009 (ip), vehicle: saline 90 % of control | [14] 103 % of control

CC12CCC(O)CC1=CCC1C2CCC2(C)C(C(O)CC(O)(C(F)(F)F)C(F)(F)F)CCC12 (centres undefined)
inactive: [4] 92 % of control | [5] 93 % of control | [6] 93 % of control
